What was measured:
[1] = system: lesions in lymph nodes and bone of men with prostate cancer; assay: Phase 1 cross-over study: whole-body and SPECT/CT lesion imaging; assay type: in vivo, human; details: patient with prior prostatectomy and rising PSA, FIG. 2C
Description: (§1) Pharmacokinetics, Biodistribution, Dosimetry, Metabolism & Excretion of compound represented by Formula (1) and Formula (2). Methods: Fourteen subjects (7 metastatic prostate cancer patients and 7 healthy, normal males) were enrolled in a phase 1, single-blind, randomized, cross-over study in which subjects were randomly administered a single dose (740 MBq; 20 mCi) of a compound represented by Formula (1) and a similar chemical analog, a compound represented by Formula (2), 14 days apart. […] (FIGS. 1 and 2A)

[2] = Phase 1 cross-over study: pharmacokinetics, biodistribution, dosimetry, excretion; assay type: in vivo, human
Description: as §1

PSMA = PSMA (Homo sapiens, UniProt Q04609); assay: In vitro binding studies to PSMA; details: read-out: affinity of binding to PSMA
Description: As illustrated, the dimeric backbone of both Formula (1) and Formula (2) compounds contain carboxylate residues that bind to the basic substrate binding pockets of the protein. The radiolabel chelator is attached to the side chain carboxyl residue (Formula (1)) or the side chain amine group (Formula (2)) through an intervening linker.

Chain of PSMA (Q04609 whole entry): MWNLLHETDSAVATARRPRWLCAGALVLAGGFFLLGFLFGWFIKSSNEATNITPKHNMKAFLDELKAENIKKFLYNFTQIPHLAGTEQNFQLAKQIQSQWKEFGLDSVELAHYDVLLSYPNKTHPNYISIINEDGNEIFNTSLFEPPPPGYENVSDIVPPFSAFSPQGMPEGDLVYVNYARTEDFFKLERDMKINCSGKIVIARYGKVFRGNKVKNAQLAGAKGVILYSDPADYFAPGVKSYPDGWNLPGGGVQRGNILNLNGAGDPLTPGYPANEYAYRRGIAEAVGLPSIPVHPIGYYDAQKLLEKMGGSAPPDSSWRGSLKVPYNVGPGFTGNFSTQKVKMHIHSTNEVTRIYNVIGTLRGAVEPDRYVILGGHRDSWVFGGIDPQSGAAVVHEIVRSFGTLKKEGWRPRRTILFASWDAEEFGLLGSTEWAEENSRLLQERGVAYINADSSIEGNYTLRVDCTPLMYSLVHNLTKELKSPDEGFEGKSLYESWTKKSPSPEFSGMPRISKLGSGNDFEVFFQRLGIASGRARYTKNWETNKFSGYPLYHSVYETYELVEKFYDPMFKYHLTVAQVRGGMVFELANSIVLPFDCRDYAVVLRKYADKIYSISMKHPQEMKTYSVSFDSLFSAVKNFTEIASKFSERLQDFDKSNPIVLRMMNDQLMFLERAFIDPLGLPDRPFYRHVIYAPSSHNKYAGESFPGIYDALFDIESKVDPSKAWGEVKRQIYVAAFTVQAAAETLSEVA

Row | SMILES | detection of metastatic lesions compared with bone scan [1] | period over which compound is cleared from blood ([2]; FIG. 1A) | physiological clearance rate ([2]; Formula (2) compared with Formula (1)) | rate of clearance from blood ([2]; Formula (2) compared with Formula (1), FIG. 1A) | clearance from these organs ([2]; Formula (2) compared with Formula (1), full body scans over 24 hours) | tissues of accumulation ([2]; in vivo pharmacokinetic and biodistribution studies) | estimated radiation dose (dosimetry) ([2]; single dose 740 MBq (20 mCi)) | amount excreted in urine ([2]; urine samples over 30 hours post administration, Formula (2) compared with Formula (1), FIG. 1B) | Kd (PSMA) [nM]
1 | N[C@@H](CCCC[N+]12Cc3n(CC(=O)O)cc[n+]3[99Tc-2]1[n+]1ccn(CC(=O)O)c1C2)C(=O)NCCCCC(NC(=O)NC(CCC(=O)O)C(=O)O)C(=O)O.[C-]#[O+].[C-]#[O+].[C-]#[O+] (stereo partly drawn) [Formula (2)] | identified multiple foci of metastatic cancer not seen in the bone scan | about 1500 minutes | more rapid | greater | clears more rapidly | liver, kidneys and salivary glands as well as the urinary bladder and prostate tissue | within the clinically acceptable range | significantly greater amount | –
2 | N[C@@H](CCCC[N+]12Cc3n(CC(=O)O)cc[n+]3[Tc-2]1[n+]1ccn(CC(=O)O)c1C2)C(=O)NCCCCC(NC(=O)NC(CCC(=O)O)C(=O)O)C(=O)O.[C-]#[O+].[C-]#[O+].[C-]#[O+] (stereo partly drawn) [Formula (2)] | – | – | – | – | – | – | – | – | 31

Source: patent US20150110716A1, “METHODS OF USING SPECT/CT ANALYSIS FOR STAGING CANCER” (Molecular Insight Pharmaceuticals, Inc., priority 2013, published 2015)
